Test results reported in patent publication US5466610A, “Immunoassays for insulin sensitivity enhancers, insulin sensitivity enhancer antibodies, and non-thiazolidinedione insulin sensitivity enhancer compositions” (Eli Lilly and Company, priority 1993, dated 1995).

Tests used:
[1] = Plasma levels of LY 116196 by fluorescent antibody competition assay; assay type: in vivo, mouse; conditions: for concentration at 1 h: 1 hr after third injection; for concentration at 3 h: 3 hr after third injection; for concentration at 6 h: 6 hr after third injection
Protocol: (§1) Serial dilutions of test compound, fermentation broth, or tissue containing test compound or putative anti-idiotype culture supernatant (20 μl/well) were incubated 20 minutes in 96-well Pandex plates with the appropriate antibody (20 μl/well; 1 μg/ml) plus either goat anti-mouse IgG Latex beads or goat anti-rabbit IgG linked to polystyrene beads (IDEXX) (20 μl/well; 1:2 dilution). Fluorescent reference particles (IDEXX) were included in all assays to minimize well-to-well variation in filtration. Fluorescent CS-045 bPE or LY 301318 bPE (20 μl/well; 1:2,000 dilution) was then added to the wells. Incubations were terminated after 20 minutes by vacuum filtration and the polystyrene particles retained on the Pandex filters were then washed twice with TBS-A buffer (described below) and solid phase fluorescence determined as described above.
(§2) Assay buffers typically contained bovine serum albumin (Sigma) at 0.2% (for monoclonal antibody assays) or 0.5% BLOTTO (non-fat dry milk for rabbit antibody assays). Percent inhibition of binding in test incubations was calculated in relationship to binding in control incubations in which no test compound was added using the following formula: % inhibition=[1-(fluorescence at 575/620 nm in test incubations divided by fluorescence at 575/620 nm in control incubations)×100)]. Concentrations of test compound in fermentation broth or plasma was calculated by interpolation from a standard curve generated with known concentrations of the appropriate compound as described in Taber et al., Clinical Chemistry, 37(2):254 (1991).
In the same experiment described in FIG. 4, plasma was prepared from tail blood drawn at 1, 3, 6, and 24 hours after the third subcutaneous injection of LY 116196. Plasma concentrations of LY 116196 (shown in Table 5) were determined directly by the fluorescent antibody competition assay using standards of LY 116196 diluted in TBS-A buffer containing 10% (v/v) normal mouse plasma. This method also has been used to measure blood concentrations of several compounds recognized by monoclonal antibody 13E3 and/or other antibodies produced by the methods described above. Thus, these reagents appear to have general utility for determining […] and tissue concentrations of immunologically positive compounds.

[2] = test system: diabetic female (Avy/a) mice; assay: Fed blood glucose in dexamethasone-treated diabetic female Avy/a mice; assay type: in vivo, mouse; conditions: subcutaneous, three days; FIG. 4
Protocol: In order to determine if any of these novel, non-thiazolidinedione structures had anti-diabetic activity, LY 116196 was administered subcutaneously for three days to female Avy/a mice, which had been made diabetic by implantation of dexamethasone pellets. These dexamethasone-treated mice are characterized by both hyperglycemia and hyperinsulinemia and are models of type II diabetes. Sulfonylureas and other insulin secretagogues have little, if any, effect on blood glucose concentrations in this insulin-resistant animal model. […] Thus, this high-volume screen has detected a novel, anti-diabetic compound, LY 116196.

monoclonal antibody 13E3 [3] = assay: High-volume screen, fluorescent antibody competition assay (inhibition of binding of CS-045 bPE); set-up: species or system mouse; conditions: for % inhibition in screen: approximately 2 μg/ml final concentration, CS-045 bPE binding to 13E3; for IC50: non-thiazolidinedione hits from high-volume screen
Protocol: as §1, §2
The fluorescent antibody competition assay for high-volume screening was adapted as described below. Goat anti-mouse particles (1:2 dilution), fluorescent reference particles (dilution was optimized for each lot), and monoclonal antibody 13E3 (1 μg/ml) were premixed in TBS-A reaction buffer (0.02M Tris, 0.15M NaCl, 0.2% bovine serum albumin, 0.01% thimerosal, pH 7.5) and 40 μls was added to each well of the Pandex plate. Synthetic organic compounds (dissolved at 5 mg/ml DMSO and then diluted in TBS-A reaction buffer to 2 μg/ml) or 1:40 dilutions of fermentation broths were added to appropriate wells (20 μl/well) and incubated for approximately 20 minutes at room temperature. To each well was next added 20 μl of CS-045 bPE fluorogen; this final mixture was again incubated for approximately 20 minutes at room temperature in the dark. Wells were then aspirated by vacuum filtration and washed twice with TBS-A reaction buffer, and surface fluorescence was read at 545/575 nm and 590/620 nm using the Screen Machine (IDEXX Laboratories, Westbrook, Me.). Each Pandex plate contained both a negative control (only reaction buffer) and a positive control (LY 282449).
Final concentrations of synthetic organic compounds in high-volume screens was approximately 2 μg/ml and final concentrations of filtered fermentation broths were 1:40 (v/v). Wells that produced greater than 50% inhibition of binding of CS-045 bPE on both the initial screening and on retesting were considered positives. […] This problem was eliminated by inspection of data from each channel.

monoclonal antibody 8D6 = assay: Fluorescent antibody competition assay, IC50 determined with MoAb 8D6; assay type: binding, mouse
Protocol: (§3) All hybridoma media were screened for monoclonal anti-CS-045 antibodies on day 17 after fusion. The fluorescent antibody capture method was used and approximately 60 monoclonal antibodies were positive for binding of the CS-045 bPE fluorogen. Among these positive monoclonal antibodies, approximately 6 had binding affinity for 3 tested thiazolidinedione ISEs--LY 282449, [drawing 2] CS-045, and ciglitazone. Fifty percent binding inhibitory concentrations (IC50) were determined and data from 4 monoclonal antibodies are shown in Table 1 below.
as §1, with “Fluorescent CS-045 bPE or LY 301318 bPE (20 μl/well; 1:2,000 dilution) was then added to the wells.” left out
as §2

monoclonal antibody 10E1 = assay: Fluorescent antibody competition assay, IC50 determined with MoAb 10E1; assay type: binding, mouse
Protocol: as §3
as §1, with “Fluorescent CS-045 bPE or LY 301318 bPE (20 μl/well; 1:2,000 dilution) was then added to the wells.” left out
as §2

monoclonal antibody 13E3 [4] = assay: Fluorescent antibody competition assay, IC50 determined with MoAb 13E3; assay type: binding, mouse
Protocol: as §3
as §1, with “Fluorescent CS-045 bPE or LY 301318 bPE (20 μl/well; 1:2,000 dilution) was then added to the wells.” left out
as §2

monoclonal antibody 8F1 = assay: Fluorescent antibody competition assay, IC50 determined with MoAb 8F1; assay type: binding, mouse
Protocol: as §3
as §1, with “Fluorescent CS-045 bPE or LY 301318 bPE (20 μl/well; 1:2,000 dilution) was then added to the wells.” left out
as §2

13E3 F(ab')2 fragments = assay: ELISA competitive inhibition between CS-045 and anti-idiotypic antibodies on 13E3 F(ab')2 fragments; assay type: binding, mouse; conditions: 0-200 μM CS-045; FIG. 3
Protocol: To test whether or not CS-045 could, in turn, displace these anti-idiotypicantibodies, 0.3 μg/well of 13E3 F(ab')2 fragments were coated onto microtiter plates and blocked with 1% BLOTTO (non-fat dry milk). Between 0-200 μM of CS-045 was added to duplicate wells. After approximately two hours at room temperature, wells were washed with BLOTTO and 500 ng of anti-idiotypic antibody 2E5 or 7E7 was added for approximately 1 hour. Goat anti-mouse (Fc -specific) conjugated with horseradish peroxidase was added and, after 30 minutes, washed 3 times with BLOTTO. A peroxidase substrate, tetramethylbenzidine (Kirkegaard and Perry Laboratories, Gaithersberg, Md.) was added and color was developed for approximately 30 minutes at room temperature.

CC(C)(Oc1ccc(C(=O)c2ccc(OC(C)(C)C(=O)O)cc2)cc1)C(=O)O [LY 116196]
Plasma concentration of LY 116196 ([1]; 30 mg s.c., 24 hr after third injection): 0 nM
Plasma concentration of LY 116196 ([1]; 100 mg s.c., 24 hr after third injection): 0 nM
concentration at 1 h ([1]; mouse, plasma, sc, 30 mg s.c.): 25 ± 11 µM
concentration at 3 h ([1]; mouse, plasma, sc, 30 mg s.c.): 0.32 ± 0.2 µM
concentration at 6 h ([1]; mouse, plasma, sc, 30 mg s.c.): 0.104 ± 0.052 µM
concentration at 1 h ([1]; mouse, plasma, sc, 100 mg s.c.): 83.3 ± 8 µM
concentration at 3 h ([1]; mouse, plasma, sc, 100 mg s.c.): 6 ± 1.6 µM
concentration at 6 h ([1]; mouse, plasma, sc, 100 mg s.c.): 0.268 ± 0.088 µM
concentration at 1 h ([1]; mouse, plasma, sc, 300 mg s.c.): 528 ± 72 µM
concentration at 3 h ([1]; mouse, plasma, sc, 300 mg s.c.): 24 ± 5.5 µM
concentration at 6 h ([1]; mouse, plasma, sc, 300 mg s.c.): 6.4 ± 3 µM
concentration at 24 h ([1]; mouse, plasma, sc, 300 mg s.c., 24 hr after third injection): 0.452 ± 0.022 µM
Fed blood glucose [2]: effectively lowered fed blood glucose
Relative fluorescence, sample channel (monoclonal antibody 13E3 [3]; 545/575 nm, 4.0 μM): 360
Relative fluorescence, reference channel (monoclonal antibody 13E3 [3]; 590/620 nm, 4.0 μM): 6,500
% inhibition in screen (monoclonal antibody 13E3 [3]): 105%
IC50 (monoclonal antibody 13E3 [3]): 60 nM

N#Cc1cc(F)cc(F)c1NC(=O)c1ccc(Cl)c(Cl)c1 [LY 820960]
% inhibition in screen (monoclonal antibody 13E3 [3]): 55%
IC50 (monoclonal antibody 13E3 [3]): 4000 nM

O=P(O)(O)c1ccc(N=Nc2cc(C(F)(F)F)cc3nc(C(F)(F)C(F)F)[nH]c23)cc1 [LY 296345]
% inhibition in screen (monoclonal antibody 13E3 [3]): 94%
IC50 (monoclonal antibody 13E3 [3]): 250 nM

CCCCCC(=O)c1ccc(OC(C)(C)C(=O)O)cc1 [LY 044047]
% inhibition in screen (monoclonal antibody 13E3 [3]): 61%
IC50 (monoclonal antibody 13E3 [3]): 4000 nM

O=C(Nc1ccc(Br)c(Cl)c1)C(F)(C(F)(F)F)C(F)(F)F [LY 800663]
% inhibition in screen (monoclonal antibody 13E3 [3]): 65%
IC50 (monoclonal antibody 13E3 [3]): 8000 nM

CC(C)(Oc1ccc(/C=C/C(=O)c2ccccc2)cc1)C(=O)O [LY 099238]
% inhibition in screen (monoclonal antibody 13E3 [3]): 87%
IC50 (monoclonal antibody 13E3 [3]): 2000 nM

O=C(O)COc1ccccc1/C=N/N=C/c1ccccc1OCC(=O)O [LY 281809]
% inhibition in screen (monoclonal antibody 13E3 [3]): 89%
IC50 (monoclonal antibody 13E3 [3]): 2000 nM

O=C1NC(=O)C(Cc2ccc3oc(Cc4ccc5ccccc5c4)nc3c2)S1 (stereo not shown) [LY 282449]
IC50 (monoclonal antibody 8D6): 4760 nM
IC50 (monoclonal antibody 10E1): 1410 nM
IC50 (monoclonal antibody 13E3 [4]): 520 nM
IC50 (monoclonal antibody 8F1): 4980 nM

O=c1[nH]c(=O)n(Cc2ccc(OCCc3coc(-c4ccccc4)n3)cc2)o1 [LY 301563]
% inhibition in screen (monoclonal antibody 13E3 [3]): 88%
IC50 (monoclonal antibody 13E3 [3]): 250 nM

O=C(O)CC(=O)Nc1nc(-c2ccc(Cl)cc2)cs1 [LY 305334]
% inhibition in screen (monoclonal antibody 13E3 [3]): 89%
IC50 (monoclonal antibody 13E3 [3]): 250 nM

CC1(COc2ccc(CC3SC(=O)NC3=O)cc2)CCCCC1 (stereo not shown) [Ciglitazone, ciglitazone]
IC50 (monoclonal antibody 8D6): 125 nM
IC50 (monoclonal antibody 10E1): 989 nM
IC50 (monoclonal antibody 13E3 [4]): 1160 nM
IC50 (monoclonal antibody 8F1): 12300 nM

CN(C)C=Nc1nc2c(s1)CCc1sc(C=NN(C)C)nc1-2 [LY 181036]
% inhibition in screen (monoclonal antibody 13E3 [3]): 90%
IC50 (monoclonal antibody 13E3 [3]): 2000 nM

Cc1c(C)c2c(c(C)c1O)CCC(C)(COc1ccc(CC3SC(=O)NC3=O)cc1)O2 (stereo not shown) [CS-045]
IC50 (monoclonal antibody 8D6): 77 nM
IC50 (monoclonal antibody 10E1): 30 nM
IC50 (monoclonal antibody 13E3 [4]): 200 nM
IC50 (monoclonal antibody 8F1): 1150 nM
Displacement of anti-idiotypic antibodies 2E5 and 7E7 (13E3 F(ab')2 fragments): can displace two anti-idiotypic antibodies

O=C(CC(=O)Nc1nc(-c2ccc(Cl)cc2)cs1)NCCO [LY 305329]
% inhibition in screen (monoclonal antibody 13E3 [3]): 53%
IC50 (monoclonal antibody 13E3 [3]): 3600 nM

CN1C(=CC(=C(C=Cc2ccc3ccccc3[n+]2C)Oc2ccccc2O)c2ccccc2)C=Cc2ccccc21 [LY 283909]
% inhibition in screen (monoclonal antibody 13E3 [3]): 70%

FC(F)(F)c1nc2cc(Cl)c(Cl)cc2[nH]1 [LY 047310]
% inhibition in screen (monoclonal antibody 13E3 [3]): 60%
IC50 (monoclonal antibody 13E3 [3]): 5000 nM

CCOC(=O)C(C)OP(=O)(Nc1ccccc1)OC(C)C(=O)OCC (stereo not shown) [LY 222072]
% inhibition in screen (monoclonal antibody 13E3 [3]): 101%
IC50 (monoclonal antibody 13E3 [3]): 8000 nM
